Experiments:
[1] = system: Ljungan virus; assay: Ljungan virus in tissue culture of Vero cells with Pleconaril (CPE); assay type: cell-based
Excerpt: (§1) Ljungan virus was first tested in tissue culture of Vero cells in combination with Pleconaril. 1,6 micrograms of active substance per ml of the tissue culture medium were used. This dose was used in all experiment below where it says “with Pleconaril”.
10 000 000 tissue culture infectious doses (TCID) of Ljungan virus treated with Pleconaril give full cytopathogenic effect (CPE) in 4 days while the control culture with no Pleconaril show full CPE in 3 days.
(§2) For a control picornavirus known not to be sensitive to Pleconaril no inhibition of any amount of the virus can be detected. […] This means that Ljungan virus is semi-sensitive” or “semi-resistant” to Pleconaril.

[2] = system: control picornavirus known not to be sensitive to Pleconaril; assay: Tissue culture with Pleconaril, control picornavirus known not to be sensitive; assay type: cell-based; details: any amount of the virus, 1,6 micrograms Pleconaril per ml
Excerpt: as §1, §2

[3] = system: picornavirus known to be sensitive to Pleconaril; assay: Tissue culture with Pleconaril, picornavirus known to be sensitive; assay type: cell-based; details: 10 000 000 TCID, 1,6 micrograms Pleconaril per ml
Excerpt: as §1, §2

[4] = system: Bank voles with diabetes; assay: Diabetic bank voles, oral Pleconaril, glucose tolerance test; assay type: in vivo; details: 100 mg/kg per day for seven days orally in drinking water; GTT 60 min, day before treatment vs 15 days later; none of six control animals
Protocol: Bank voles with diabetes were randomised into 2 groups one treated with Pleconaril and one not receiving any treatment. Treated animals were given 100 mg Pleconaril per kg body weight per day seven days. The drug was administered orally in the drinking water. All animals were subjected to a glucose tolerance test the day before the treatment and again 15 days later. Glucose tolerance test was performed by administrating 2 grams of glucose per kg BW intraperitoneally. The blood glucose levels were measured after 60 min.

[5] = system: arctic fox with severe encephalitis (Ljungan virus); assay: Encephalitis in arctic fox treated with Pleconaril; assay type: in vivo; details: one arctic fox, 50 mg/kg twice daily for 7 days
Excerpt: The arctic fox in Sweden is a species close to being extinct. The reason for this is unknown. Nordens Ark has a breeding program for arctic foxes with the aim to save the species. However, several animals in captivity have developed encephalitis and died. Nordens Ark has lost almost all their animals. The encephalitis is a slow progressing disease often starting with stereotypic behaviour followed by visual problem, loss of smell and loss of muscle coordination. The condition is slowly progressing over several months leading to the deaths of the animal. No spontaneous recovery has been seen in any of the arctic foxes observed.
Ljungan virus was isolated from the brain of one arctic fox suffering from encephalitis. Ljungan virus RNA was also detected by PCR in the brain and the heart of the same individual. Ljungan virus could also be detected in the brain and the heart by immunohistochemistry.
One arctic fox with severe encephalitis was treated with 50 mg/kg of Pleconaril twice daily for 7 days.

[6] = system: Ljungan virus (LV145 SL); assay: Antiviral therapy of diabetes in male offspring of Ljungan virus infected laboratory mice; assay type: in vivo, CD1 mice; details: for frequency of animals with diabetes, as measured by GTT: vs infected untreated mice
Protocol: Glucose tolerance test was performed to determine the diagnosis of diabetes. In this test 2 g glucose per kg body weight was administrated intraperitoneally (as 100 mg glucose/ml solution). Blood glucose was measured (Medisence Precision PCx Abbott Laboratories) just before the glucose injection and at 60 and 120 minutes post administration. Diabetes was defined as a blood glucose level above 200 mg/dL in a glucose tolerance test at 120 min.
Abdominal fat in male mice was measured by dissecting out the bilateral scrotal fat cushion. The total weight of both fat cushions was used.
The serum insulin level was measured using a rat insulin high range ELISA kit (Mercodia AB, Uppsala, Sweden) according to the instructions of the manufacturer. Islets prepared from the pancreas were assayed for insulin release and glucose oxidation assay described elsewhere (Blixt, M., Niklasson, B. & Sandler, S. Characterization of β-cell function of pancreatic islets isolated from bank voles developing glucose intolerance/diabetes: an animal model showing features of both type 1 and type 2 diabetes mellitus. Manuscript submitted).
Pregnant outbred CD1 mice (CD-1 (ICR) Br Charles River laboratories, Germany) were infected intraperitoneally with 1000 ID50 units of LV145 SL two days after conception. Control animals were given an injection with the same volume with normal saline at the same time. All female mice were kept in individual cages and followed for the development of gestational diabetes, pregnancy outcome and development of diabetes in the offspring. In half of the infected pregnant mice, mild stress was induced by adding glucose (100 g/liter) to drinking water, performing weekly weights and glucose tolerance testing during the last week of pregnancy. The uninfected control group of pregnant mice was also subjected to stress. Antiviral therapy using LV-specific murine antisera or the oral antiviral compound Pleconaril (200 mg per kg body weight) administrated once a day for 4 consecutive days or a combination of antiserum and Pleconaril was initiated at 5 weeks of age (11-13). At 15 weeks animals were tested by a glucose tolerance test (GTT). Also, serum insulin level and abdominal fat were measured and the histopathology of the pancreas was examined.
Antiviral therapy using LV-specific murine antisera (group IV) or the oral antiviral compound Pleconaril (200 mg per kg body weight) administrated once a day for 4 consecutive days (group III) or a combination of antiserum and Pleconaril (group V) was initiated at 5 weeks of age.
Mice were treated with a combination of Pleconaril and antisera and interferon α. Interferon a was given as 2×10^7 IU/kg/day during three consecutive days during the same week Pleconaril and specific immunoglobulin was administrated. […] In addition, the combination therapy (Pleconaril, antisera, and interferon) normalize the amount of abdominal fat and the level of serum insulin, reducing them to normal levels.

## Cc1cc(CCCOc2c(C)cc(-c3noc(C(F)(F)F)n3)cc2C)on1 [Pleconaril, 3-[3,5-dimethyl-4-[[3-(3-methyl-5-isoxazolyl)propyl]oxy]phenyl]-5-(trifluoromethyl)-1,2,4-oxadiazole]
[1]; 10 000 000 TCID of Ljungan virus, Vero cells, 1,6 micrograms Pleconaril per ml, control culture without Pleconaril full CPE in 3 days
  time to full cytopathogenic effect (CPE): 4 days
[1]; 100 TCID of Ljungan virus, Vero cells, 1,6 micrograms Pleconaril per ml
  inhibition of Ljungan virus: fully inhibited
[1]; Vero cells, 1,6 micrograms per ml
  sensitivity of Ljungan virus to Pleconaril (conclusion): semi-sensitive
[2]
  inhibition of control picornavirus: no inhibition
[3]
  inhibition of sensitive picornavirus (CPE): inhibited (no CPE)
[4]
  animals improved with blood glucose levels decreasing more than 200 mg per dl: 2 out of six
[5]
  clinical condition after the treatment: improved
  course after several months: signs and symptoms of encephalitis came back
[6]; Table 2, GTT at 15 weeks, therapy started at 5 weeks, number of mice, infected no treatment 8 of 11
  No. with blood glucose > 200 md/dL at 120 min: 1
[6]; Table 2, GTT at 15 weeks, infected no treatment 73%
  No. with blood glucose > 200 md/dL at 120 min (percent): 9%
[6]; Table 2, GTT at 15 weeks, infected no treatment 242
  Blood glucose at 60 min: 211
[6]; Table 2, at 15 weeks, infected no treatment 5.04
  Serum insulin: 4.15 µg/L
[6]; Table 2, male mice at 15 weeks, infected no treatment 2.9
  Abdominal fat in gram: 2.1 gram
[6]; Table 7, infected mice, number of mice, no treatment 8 of 11
  No. Hyperglycemic: 1
[6]; Table 7, infected mice, no treatment 73%
  No. Hyperglycemic (percent): 9%
[6]; Table 7, infected mice, spread in brackets, no treatment 2.90 (0.84)
  Abdominal fat: 2.20 (1.0) g
[6]; Table 7, infected mice, spread in brackets, no treatment 5.04 (2.30)
  Serum insulin: 4.15 (5.03) μg/L
[6]; Table 7, infected mice, spread in brackets, no treatment 242 (75)
  Blood glucose @ 60 minutes: 211 (79) mg/dL
[6]
  frequency of animals with diabetes, as measured by GTT: reduced the frequency of animals with diabetes
[6]; listed as Pleconaril alone
  frequency of animals with diabetes, as measured by GTT: reduced the frequency of diabetes
